From US20200268728A1, “DRUG TARGETING CANCER STEM CELL” (Sumitomo Dainippon Pharma Co., Ltd., priority 2016, published 2020)
Where a name gives a salt, the structure may show the parent alone. Read-outs that look alike come from different tables or passages of the source.

How the values were obtained:
Type in all cases: cell-based, human
H460 cells = experiment: Combination with Example 24, inhibitory effect on sphere-forming ability (Test Example 6); details: H460 sphere culture, test compound combined with Example 24 (2-1000 nmol/L), 4 days
HCT116 cells = experiment: as above; details: HCT116 sphere culture, test compound combined with Example 24 (2-1000 nmol/L), 4 days
HCT-116 cells = experiment: Test for inhibiting sphere-forming ability of cancer cells (Test Example 1); details: non-adherent serum-free sphere culture, 4 days, CellTiter-Glo, read-out: IC50 (μmol/L), Sphere IC50 value, concentration for 50% inhibition of cell proliferation
Protocol: The reliable methods established for measuring the self-renewal ability of cells which is one of the CSC's properties include a method for measuring the sphere-forming ability of cancer cells in non-adherent condition in the absence of serum (Cancer Res 65, 5506-5511 (2005)). HCT-116 cells were available from the American Type Culture Collection (ATCC). HCT-116 cells were cultured at 37° C. and 5% CO2 using the McCoy's 5a medium containing 10% fetal bovine serum (FBS), 100 U/ml penicillin, and 100 μg/ml streptomycin. HCT-116 cells were seeded in a 384 Well Black Clear Bottom Ultra-Low Attachment Microplate (Corning Cat. No. 3827) in an amount of 350-800 cells/well using the DMEM/F12 medium containing 2% B27 supplement (GIBCO), 20 ng/mL epidermal growth factor (EGF) (peprotech), 10 ng/mL basic fibroblast growth factor (bFGF) (peprotech), 5 μg/mL insulin (Sigma), and 1% penicillin/streptomycin. The test compounds were added into each well to adjust the final concentration of DMSO to 0.1%, and the cells were cultured for 4 days. The number of viable cells in each well was then measured with CellTiter-Glo® Luminescent Cell Viability Assay (Promega) to calculate the concentration of each test compound for 50% inhibition of cell proliferation (Sphere IC50 value; μmol/L).
The experiment of Test Example 1 was performed for the compounds of each Example.

| IC50 (HCT-116 cells; Homo sapiens, 96 h) [µmol/L] | Compound | sCI, minimum (Ld)/(Lc) (H460 cells) | sCI, minimum (Ld)/(Lc) (HCT116 cells) | also measured |
| --- | --- | --- | --- | --- |
| – | CN1CCN(c2nc(C3=C(c4c[nH]c5ccccc45)C(=O)NC3=O)c3ccccc3n2)CC1 [Sotrastaurin] | 0.030 | – | – |
| – | CCN(CC)CCNC(=O)c1c(C)[nH]c(/C=C2\C(=O)Nc3ccc(-c4csc(-c5ccccc5)n4)cc32)c1C [Amcasertib] | – | 0.017 | – |
| – | CS(=O)(=O)CCNCc1ccc(-c2ccc3ncnc(Nc4ccc(OCc5cccc(F)c5)c(Cl)c4)c3c2)o1 [Lapatinib] | 0.076 | 0.024 | – |
| 0.079 | O=C(Nc1ccc2nc(CO)ccc2c1)c1cn(Cc2cc(F)c(F)c(F)c2)cn1 [Example 29] | – | – | – |
| – | COc1ccc(C(=O)Nc2cn(Cc3ccc(F)cc3F)cn2)cc1OC [Example 12, N-[1-(2,4-difluorobenzyl)-1H-imidazol-4-yl]-3,4-dimethoxybenzamide] | – | – | IC50 (HCT-116 cells): 0.09 µmol/L |
| – | Cc1c[nH]c(-c2cnc(NCCNc3ccc(C#N)cn3)nc2-c2ccc(Cl)cc2Cl)n1 [CHIR-99021] | 0.378 | – | – |
| – | CC[C@H](C)C(=O)O[C@H]1C[C@@H](C)C=C2C=C[C@H](C)[C@H](CC[C@@H]3C[C@@H](O)CC(=O)O3)[C@H]21 [Lovastatin] | – | 0.150 | – |
| – | Cc1cc2c(C(C)C)c(O)c(O)c(C=O)c2c(O)c1-c1c(C)cc2c(C(C)C)c(O)c(O)c(C=O)c2c1O [Gossypol] | 0.026 | – | – |
| – | CC[C@H](C)C(=O)O[C@H]1C[C@H](O)C=C2C=C[C@H](C)[C@H](CC[C@@H](O)C[C@@H](O)CC(=O)O)[C@H]21 [Pravastatin] | – | 0.810 | – |
| – | CC(=O)c1cc2c(o1)C(=O)c1ccccc1C2=O [Napabucasin] | – | 0.159 | – |
| – | COC1=CC(c2cc3ccccc3[nH]2)=N/C1=C\c1[nH]c(C)cc1C [Obatoclax] | 0.061 | 0.103 | – |
| – | CN(C)CCOc1ccc(/C(=C(/CCCl)c2ccccc2)c2ccccc2)cc1 [Toremifene] | – | 0.020 | – |
| 0.01 | Nc1cc(C(=O)Nc2cn(Cc3cc(F)c(F)c(F)c3)cn2)cnc1CO [Example 59, 5-amino-6-(hydroxymethyl)-N-[1-(3,4,5-trifluorobenzyl)-1H-imidazol-4-yl]nicotinamide] | – | – | – |
| 0.053 | O=C(Nc1cn(Cc2cccc(C(F)(F)F)c2)cn1)c1cnc(CO)cn1 [Example 26] | – | – | – |
| – | Raloxifen | – | 0.010 | – |
| – | CCC(C)(C)C(=O)O[C@H]1C[C@@H](C)C=C2C=C[C@H](C)[C@H](CC[C@@H]3C[C@@H](O)CC(=O)O3)[C@H]21 [Simvastatin] | – | 0.257 | – |
| 0.07 | O=C(Nc1cn(Cc2cccc(C(F)(F)F)c2)cn1)c1cnc(CO)c(C(F)(F)F)c1 [Example 25] | – | – | – |
| – | C=C1/C(=C\C=C2/CCC[C@]3(C)[C@@H]([C@H](C)/C=C/[C@H](C)C(C)C)CC[C@@H]23)C[C@@H](O)C[C@@H]1O [Doxercalciferol] | 0.304 | – | – |
| – | Cc1c(NC(=O)OC[C@@H]2COCCN2)cn2ncnc(Nc3ccc4c(cnn4Cc4cccc(F)c4)c3)c12 [BMS-599626] | 0.081 | – | – |
| 0.024 | O=C(Nc1cn(Cc2cccc(C(F)(F)F)c2)cn1)c1csc(CO)n1 [Example 18] | – | – | – |
| < 0.01 | O=C(Nc1ccc(CO)nc1)c1cn(Cc2cc(F)c(F)c(F)c2)cn1 [Example 28, N-[6-(Hydroxymethyl)pyridin-3-yl]-1-(3,4,5-trifluorobenzyl)-1H-imidazole-4-carboxamide] | – | – | – |
| – | COc1ccc(-c2ccc3c(N4CCOC[C@@H]4C)nc(N4CCOC[C@@H]4C)nc3n2)cc1CO [AZD8055] | 0.651 | – | – |
| 0.029 | Nc1cc(C(=O)Nc2cn(Cc3cccc(C(F)(F)F)c3)cn2)cnc1CO [Example 58, 5-Amino-6-(hydroxymethyl)-N-{1-[3-(trifluoromethyl)benzyl]-1H-imidazol-4-yl}nicotinamide] | – | – | – |
| – | CC(C)(C)Cn1c(N)nc2ccc(-c3[nH]c(C(C)(C)C)nc3-c3ccc(F)cc3)nc21 [LY2228820] | 0.020 | – | – |
| – | O=C(CCCCCCC(=O)Nc1ccccc1)NO [Vorinostat] | 0.573 | – | – |
| – | Cc1ccc(F)c(NC(=O)Nc2ccc(-c3cccc4[nH]nc(N)c34)cc2)c1 [Linifanib] | 0.142 | – | – |

| IC50 (HCT-116 cells; Homo sapiens, 96 h) [µmol/L] | Compound | sCI, minimum (Ld)/(Lc) (H460 cells) | sCI, minimum (Ld)/(Lc) (HCT116 cells) | also measured |
| --- | --- | --- | --- | --- |
| < 0.01 | O=C(Nc1cn(Cc2cccc(C(F)(F)F)c2)cn1)c1ccc(CO)nc1 [Example 22, 6-(hydroxymethyl)-N-{1-[3-(trifluoromethyl)benzyl]-1H-imidazol-4-yl}nicotinamide] | – | – | – |
| < 0.01 | Cc1cc(C(=O)Nc2cn(Cc3cc(F)c(F)c(F)c3)cn2)cnc1CO [Example 55, 6-(Hydroxymethyl)-5-methyl-N-[1-(3,4,5-trifluorobenzyl)-1H-imidazol-4-yl]nicotinamide] | – | – | – |
| – | COc1ccc(COc2cc3oc(=O)c4cc(C(C)O)ccc4c3cc2OC)cc1 (centres unmarked) [Palomid 529] | 0.428 | – | – |
| 0.007 | O=C(Nc1cn(Cc2cc(F)c(F)c(F)c2)cn1)c1ccc(CO)nc1 [Example 20, 6-(Hydroxymethyl)-N-[1-(3,4,5-trifluorobenzyl)-1H-imidazol-4-yl]nicotinamide] | – | – | – |
| – | Cn1cc(-c2ccc3nnc(C(F)(F)c4ccc5ncccc5c4)n3n2)cn1 [JNJ-38877605] | 0.711 | – | – |
| – | CC[C@@H]1C(=O)N(C)c2cnc(Nc3ccc(C(=O)NC4CCN(C)CC4)cc3OC)nc2N1C1CCCC1 [BI 2536] | – | 0.623 | – |
| – | CC(C)n1c(/C=C/C(O)CC(O)CC(=O)O)c(-c2ccc(F)cc2)c2ccccc21 (centres unmarked) [Fluvastatin] | – | 0.163 | – |
| – | Cc1ccc(Nc2nccc(N(C)c3ccc4c(C)n(C)nc4c3)n2)cc1S(N)(=O)=O [Pazopanib] | 0.507 | – | – |
| – | Cn1cncc1[C@@](N)(c1ccc(Cl)cc1)c1ccc2c(c1)c(-c1cccc(Cl)c1)cc(=O)n2C [Tipifarnib] | 0.564 | – | – |
| – | C=CCNC1=C2C[C@@H](C)C[C@H](OC)[C@H](O)[C@@H](C)/C=C(\C)[C@H](OC(N)=O)[C@@H](OC)/C=C\C=C(/C)C(=O)NC(=CC1=O)C2=O [Tanespimycin] | 0.386 | – | – |
| – | Cc1nc(Nc2ncc(C(=O)Nc3c(C)cccc3Cl)s2)cc(N2CCN(CCO)CC2)n1 [Dasatinib] | 0.514 | 0.171 | – |
| – | O=C(Nc1ccccc1-c1cn2c(CN3CCNCC3)csc2n1)c1cnc2ccccc2n1 [SRT1720] | – | 0.007 | – |
| – | CC(C)c1c(C(=O)Nc2ccccc2)c(-c2ccccc2)c(-c2ccc(F)cc2)n1CC[C@@H](O)C[C@@H](O)CC(=O)O [Atorvastatin] | – | 0.3 | – |
| < 0.01 | O=C(Nc1cn(Cc2cccc(C(F)(F)F)c2)cn1)c1cnc(CO)c(C(F)F)c1 [Example 23, 5-(difluoromethyl)-6-(hydroxymethyl)-N-{1-[3-(trifluoromethyl)benzyl]-1H-imidazol-4-yl}nicotinamide] | – | – | – |
| – | CCc1cc(Nc2nccc(-c3c(-c4ccc(OC)c(C(=O)Nc5c(F)cccc5F)c4)nc4ccccn34)n2)c(OC)cc1N1CCC(N2CCN(S(C)(=O)=O)CC2)CC1 [GSK1904529A] | 0.166 | – | – |
| – | CC/C(=C(\c1ccccc1)c1ccc(OCCN(C)C)cc1)c1ccccc1 [Tamoxifen] | – | 0.046 | – |
| 0.03 | O=C(Nc1cn(Cc2cccc(C(F)(F)F)c2)cn1)c1ccc(CO)cn1 [Example 15, 5-(Hydroxymethyl)-N-{1-[3-(trifluoromethyl)benzyl]-1H-imidazol-4-yl}picolinamide] | – | – | – |
| 0.653 | O=C(Nc1cn(Cc2cccc(C(F)(F)F)c2)cn1)c1cc(CO)on1 [Example 27] | – | – | – |
| 0.66 | O=C(Nc1ccc2c(c1)CCCN2)c1cn(Cc2cc(F)c(F)c(F)c2)cn1 [Example 33, N-(1,2,3,4-Tetrahydroquinolin-6-yl)-1-(3,4,5-trifluorobenzyl)-1H-imidazole-4-carboxamide dihydrochloride] | – | – | – |
| 0.077 | O=C(Nc1cn(Cc2cc(F)c(F)c(F)c2)cn1)c1csc(CO)n1 [Example 19] | – | – | – |
| – | COc1ccc2cc(-c3nc(-c4ccc([S+](C)[O-])cc4)[nH]c3-c3ccncc3)ccc2c1 (centres unmarked) [Tie2 kinase inhibitor] | 0.123 | – | – |
| – | Cc1cccc(Nc2nc(-c3ccncc3)cs2)c1 [STF-62247] | 0.221 | – | – |
| – | CN1CCC(CNc2ccc3ncc(-c4cccc(OC(F)(F)F)c4)n3n2)CC1 [SGI-1776] | – | 0.026 | – |
| – | Cc1ccc(NC(=O)c2ccc(CN3CCN(C)CC3)cc2)cc1Nc1nc(-c2cccnc2)cs1 [Masitinib] | 0.010 | – | – |
| – | CCCCCCCCc1ccc(CCC(N)(CO)CO)cc1 [Fingolimod] | 0.007 | 0.013 | – |
| 0.056 | O=C(Nc1cn(Cc2cccc(Cl)c2)cn1)c1ccc(CO)nc1 [Example 21] | – | – | – |
